Where no end group is shown, it is not given here.
Legend:
[1] = test system: S6S7T16S17AAAA-CCR5; assay: BRET CAMYEL Gαi signaling via S6S7T16S17AAAA-CCR5; format: cell-based, human; conditions: CHO cells, n = 3
Method: (§1) BRET measurements of Gαi signaling and β-arrestin recruitment: Cells were seeded in 6-well plates (500,000 cells/well) and transiently transfected the following day. For BRET measurements of Gαi signaling, cells were transfected with vectors encoding the human chemokine receptors as indicated (160 ng/well) and the CAMYEL sensor (cAMP sensor, YFP-Epac-RLuc) (840 ng/well) using Lipofectamine (6 µL/well). Briefly, DNA was dissolved in 125 µL OPTI-MEM and Lipofectamine was dissolved in 125 µL OPTI-MEM. The DNA and Lipofectamine solutions were combined into a transfection mixture. The transfection mixture was added dropwise to cells incubated in OPTI-MEM (1 mL/well). Transfections were terminated after 5 h by adding 1 mL of fresh culture medium on top of the OPTI-MEM. The following day the cells were loosened from the plates in PBS with 5 mM glucose and subsequently aliquoted in white 96-well iso plates (~25,000 cells/well). […] The BRET signal is determined as the ratio eYFP (530 nm)/Rluc (480 nm).
(§2) BRET principle with CAMYEL: For quantification of signaling initiated immediately downstream of receptor activation, we used the cAMP binding CAMYEL sensor to perform bioluminescence resonance energy transfer (BRET) based assays. […] The BRET ratio is determined as the ratio between YFP/Rluc, and an increase in BRET ratio indicates a decrease in cAMP and thus increased chemokine receptor activation. […]

[2] = target: T1, CCR5 (Homo sapiens, UniProt P51681); assay: BRET CAMYEL cAMP sensor assay of ligand-induced Gαi signaling via CCR5; format: cell-based; conditions: n = 3
T1 construct: expressed in transfected cells; host or cells: CHO-K1, CHO-pgsB618 (GAG-minus), HEK293 WT / DeltaSia / sC
T1 sequence (P51681 whole entry): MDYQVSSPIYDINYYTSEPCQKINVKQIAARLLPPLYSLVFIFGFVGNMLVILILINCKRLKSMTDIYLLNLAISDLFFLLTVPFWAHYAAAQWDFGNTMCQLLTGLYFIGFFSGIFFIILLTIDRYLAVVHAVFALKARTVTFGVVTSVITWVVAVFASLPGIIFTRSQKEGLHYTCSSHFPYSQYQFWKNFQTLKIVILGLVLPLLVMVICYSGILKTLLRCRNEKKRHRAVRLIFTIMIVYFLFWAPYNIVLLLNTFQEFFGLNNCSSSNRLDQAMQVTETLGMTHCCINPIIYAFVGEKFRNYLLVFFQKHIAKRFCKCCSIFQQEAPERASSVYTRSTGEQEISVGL
Method: For quantification of signaling initiated immediate downstream of receptor activation, we used the cAMP binding CAMYEL sensor to perform bioluminescence resonance energy transfer (BRET)-based assays. Shortly, in this assay increased receptor activation leads to an increase in BRET ratio. For detailed information see the Materials and Methods section.
In signaling assays testing the boosting ability of basic peptides, transfected cells were aliquoted into 96-well plates in the presence of 10 µM peptide or PBS vehicle. After R-Luc substrate addition, chemokines were added to reach final concentrations ranging from 0–100 nM (0, 0.1, 1, 10, and 100 nM) and forskolin was applied before reading emission at 475 and 525 nm.
BRET measurements of Gαi signaling and β-arrestin recruitment: Cells were seeded in 6-well plates (500,000 cells/well) and transiently transfected the following day. For BRET measurements of Gαi signaling, cells were transfected with vectors encoding the human chemokine receptors as indicated (160 ng/well) and the CAMYEL sensor (cAMP sensor, YFP-Epac-RLuc) (840 ng/well) using Lipofectamine (6 µL/well). Briefly, DNA was dissolved in 125 µL OPTI-MEM and Lipofectamine was dissolved in 125 µL OPTI-MEM. The DNA and Lipofectamine solutions were combined into a transfection mixture. The transfection mixture was added dropwise to cells incubated in OPTI-MEM (1 mL/well). Transfections were terminated after 5 h by adding 1 mL of fresh culture medium on top of the OPTI-MEM. The following day the cells were loosened from the plates in PBS with 5 mM glucose and subsequently aliquoted in white 96-well iso plates (~25,000 cells/well). When using C21TP variants and defense peptides (hBD2 and histatin), these were added to a final concentration of 10 μM/well, while an equal amount of PBS was added to control cells. The bioluminescence substrate coelenterazine was added to a final conc. of 5 µM. After 10 min, varying ligand concentrations were added. For BRET measurements of Gαi signaling, forskolin was added 5 min after the addition of the ligand, to a final conc. of 5 µM. The plates were kept in the dark at all times. A Perkin Elmer Envision machine was used for measuring the emission signals at 530 and 480 nm. The BRET signal is determined as the ratio eYFP (530 nm)/Rluc (480 nm).
BRET principle with CAMYEL: For quantification of signaling initiated immediately downstream of receptor activation, we used the cAMP binding CAMYEL sensor to perform bioluminescence resonance energy transfer (BRET) based assays. In this assay we measure changes in intracellular cAMP levels in response to receptor activation. Activation of chemokine receptors lead to a decrease in cAMP through inhibition of adenylate cyclase (AC). In the current setup we initially add forskolin that stimulates AC directly to induce an increase in intracellular cAMP, and we then measure the ability of a ligand (chemokine) to counteract the forskolin-induced increase in cAMP. The cAMP sensor (CAMYEL cAMP sensor, YFP-Epac-RLuc) carries the donor Renilla luciferase (Rluc) and the acceptor YFP. Coelenterazine is a substrate for Rluc that will emit light at around 475 nm upon enzymatic cleavage catalyzed by Rluc. When Rluc and YFP are in close proximity, the energy from the emitted light from coelenterazine can be transferred to YFP, resulting in an excitation of YFP, leading to a BRET signal around 525 nm. EPAC is a cAMP binding protein that changes conformation upon cAMP binding. During low cAMP concentrations, Rluc and YFP are near each other, and a strong BRET signal at 525 nm is obtained. When cAMP levels increase, cAMP will bind to EPAC, creating a conformational change, separating Rluc and YFP, reducing the BRET ratio, and increasing the emission from Rluc at 475 nm. Thus, by measuring the ratio between the cAMP-bound (475 nm) and the cAMP-free (525 nm) state of CAMYEL we obtain a measure of receptor activation. […]

[3] = test system: Y10A-CCR5; assay: BRET CAMYEL Gαi signaling via Y10A-CCR5; format: cell-based, human; conditions: CHO cells, n = 3
Method: as §1, §2

[4] = CHO-K1 cells, 10 µM peptide, chemokine 0-100 nM
[5] = HEK293 WT, DeltaSia and sC cells, 10 µM peptide
[6] = M1-tagged CCR5, HEK293 WT, DeltaSia and sC cells, 10 µM peptide

RKDRGASKTGKKGKGSKGCKRTERSQTPKGP [C21TP^81-111]
boosting of CCL5 signaling via S6S7T16S17AAAA receptor variant ([1]; 10 µM peptide): not in S6S7T16S17AAAA
boosting of CCL5 signaling via CCR5 in GAG-plus (WT) and GAG-minus cells ([2]; CHO GAG-plus and CHO GAG-minus (CHO-pgsB618) cells, 10 µM peptide): boosted
boosting of CCL5-induced Gαi signaling via CCR5 [2, 4]: boosted
boosting of CCL8-induced Gαi signaling via CCR5 [2, 4]: boosted
effect on CCL3-induced Gαi signaling via CCR5 [2, 4]: not affected
boosting of signaling by CCL5, E26A and E66A via CCR5 ([2]; HEK293 DeltaSia and sC cells, 10 µM peptide): lost
boosting of signaling by CCL5, E26A and E66A via CCR5 ([2]; HEK293 WT cells, 10 µM peptide): boosting occurs with all three versions of CCL5
boosting of CCL3 signaling via CCR5 [2, 5]: absent
boosting of CCL5 signaling via CCR5 [2, 5]: observed in all three cell lines
boosting of CCL8 signaling via CCR5 [2, 5]: absent
boosting of E66A signaling via CCR5 ([2]; HEK293 sC cells, 10 µM peptide): significantly boosted
boosting of CCL3-induced signaling via M1-CCR5 [2, 6]: not boosted
boosting of CCL5-induced signaling via M1-CCR5 [2, 6]: boosted
boosting of CCL8-induced signaling via M1-CCR5 [2, 6]: not boosted
boosting of CCL5 signaling via Y10A receptor variant ([3]; 10 µM peptide): maintained

CCL5: human chemokine from Peprotech, overall basic
Gαi signaling via S6S7T16S17AAAA-CCR5 compared to WT-CCR5 [1]: completely abolished
LogEC50 of CCL5-induced Gαi signaling via CCR5 ([2]; CHO GAG-plus (WT CHO-K1) cells, CCL5 alone without peptide): −7.522 ± 0.639
Gαi signaling via CCR5 in DeltaSia cells compared to WT cells ([2]; HEK293 DeltaSia (ST3GAL1/2 KO)): significantly impaired
Gαi signaling via CCR5 in DeltaSia and sC cells ([2]; HEK293 DeltaSia and sC, CCL5 oligomerization variants experiment): very low
Gαi signaling via CCR5 in sC cells compared to WT cells ([2]; HEK293 sC (C1GALT1 KO)): almost abolished
Gαi signaling via M1-CCR5 in DeltaSia and sC cells compared to WT cells ([2]; M1-tagged CCR5, HEK293 DeltaSia and sC): drastically reduced
Gαi signaling via Y10A-CCR5 compared to WT-CCR5 [3]: significantly reduced

Reference: publication PMC11477141, “Chemokine Receptor N-Terminus Charge Dictates Reliance on Post-Translational Modifications for Effective Ligand Capture and Following Boosting by Defense Peptides” (International Journal of Molecular Sciences, 2024)
